Laboratory results taken from PMC9499467, “Phenanthroindolizidine Alkaloids Isolated from Tylophora ovata as Potent Inhibitors of Inflammation, Spheroid Growth, and Invasion of Triple-Negative Breast Cancer” (International Journal of Molecular Sciences, 2022).
Where two headings read alike, the source gives them in different places.

Assays:
MDA-MB-231 = assay: 2D cell viability (PrestoBlue resazurin) in MDA-MB-231; assay type: cell-based, human; details: Homo sapiens
Procedure: Cell viability was determined based on resazurin-reduction in viable cells according to the PrestoBlue^TM Assay. On day 1, MDA-MB-231 (1.5 × 10^4 cells per well or 7.5 × 10^3 cells per well) were seeded into black 96 well plates (Greiner; #655090) in a total volume of 100 µL. On day 2, the compounds or DMSO (Roth; #A994.1) alone at maximal 0.1% were applied (final concentrations after serial dilution shown in Table 3). An amount of 20 µM staurosporine (Sigma-Aldrich; #S5921) served as a positive control. On day 3, the PrestoBlue^TM reagent (Invitrogen^TM, Darmstadt, Germany; #A13262) was applied according to the manufacturer`s instructions. Finally, cell viability-dependent fluorescence was recorded in relative fluorescence units (RFU) with excitation/emission (Exλ/Emλ) at 535/590 nm or 560/590 nm, using the microplate reader Spark® (Tecan).

NFκB [1] = assay: NFκB inhibition assay (24 h), NFκB-dependent firefly luciferase reporter; assay type: cell-based; details: Homo sapiens; NFκB-MDA-MB-231-firefly cells, 24-h treatment, 20 ng/mL TNFα, mean ± SD; read-out: NFκB Inhibition 24 h IC50
Procedure: On day 1, 3 × 10^4 NFκB MDA-MB-231-firefly cells were seeded into white 96 well plates (Greiner; #655098). On day 2, the medium was replaced with starvation medium and the cells were pre-incubated for 20 min with either 100 µL of DMSO (Roth; #A994.1) alone at maximal 0.1%, or with the final concentration of the diluted compounds (Table 3). To activate NFκB signaling, cells were stimulated with 20 ng/mL TNFα (Peprotech, Hamburg, Germany; #300-01A). Cell lysis was performed in 20 µL 1× cell lysis buffer according to the manufacturer’s instruction for the Luciferase Assay System (Promega #E1500). NFκB-dependent luminescence was determined as relative light units (RLU) using the microplate reader Spark® (Tecan).

[2] = test system: 3D co-culture spheroids of MDA-MB-231 and primary murine CAFs; assay: 3D cell viability (ATP content) in TNBC co-culture spheroids; assay type: cell-based, human MDA-MB-231; details: Mus musculus, MDA-MB-231
Procedure: On day 1, 3000 cells were seeded into a low-attachment 96 well plate (Greiner; #650970). […] Cell viability was determined based on the ATP content in viable cells according to the manufacturer`s instructions (Promega #G9682). Co-culture spheroids were generated for 72 h before they were grown for another 72 h with or without exposure to the compounds. […] Cell viability-dependent luminescence was determined as relative light units (RLU) using the microplate reader Spark® (Tecan).

[3] = test system: 3D co-culture spheroids of MDA-MB-231 and primary murine CAFs; assay: 3D growth studies, spheroid size of co-culture spheroids; assay type: cell-based, human MDA-MB-231; details: 100 nM, 72 h
Procedure: To emulate the TNBC microenvironment, 3D spheroids composed of MDA-MB-231 and CAFs at a ratio of 1:2 in a collagen-based matrix were generated. The culture medium of both cell lines was mixed (DMEM:RPMI 1640 (1:1) + 12.5% FCS + 1% PS) and supplemented with 0.05 mg/mL collagen type I (Thermo Fisher Scientific; #A1048301). On day 1, 3000 cells were seeded into a low-attachment 96 well plate (Greiner; #650970). Spheroids were grown for 72 h before proceeding with compound treatment on day 4, and analysis on day 7 according to the “Spheroid immunostaining”, “3D cell viability”, or “3D growth” studies presented in the results section.
Co-culture spheroids were generated for 72 h before they were exposed to either DMSO (Roth; #A994.1) alone at maximal 0.1%, 100 nM paclitaxel (Santa Cruz Biotechnology; #sc-201439), or 100 nM of compound (1) for another 72 h. At least three spheroids per treatment group were analyzed. For that purpose, brightfield images of the spheroids were acquired at 100× g magnification using the microscope Axio Vert.A1 (Zeiss). The spheroid surface area was quantified in brightfield images using Fiji (open-source software; version 1.52i) and was further defined as spheroid size. In each individual experiment spheroid size was normalized to the smallest (which was set to 0%) and to the largest spheroids (which was set to 100%).

NFκB [4] = assay: NFκB inhibition assay (2 h), NFκB-dependent nanoluc luciferase reporter; assay type: cell-based, human; details: Homo sapiens; NFκB-MDA-MB-231-nanoluc cells, 2-h treatment, mean ± SD; read-out: NFκB Inhibition 2 h IC50
Procedure: Experiments were performed according to the published protocol. On day 1, 4 × 10^4 NFκB-MDA-MB-231-nanoluc cells were seeded into white 96 well plates (Greiner; #655098). On day 2, the medium was replaced with starvation medium and the cells were pre-incubated for 20 min with either 100 µL of DMSO (Roth; #A994.1) alone at a concentration of maximal 0.1% or with the final concentration of the diluted compounds (Table 3). To activate NFκB signaling, cells were stimulated with 1 µg/mL LPS (Sigma-Aldrich; #L2630) beforehand. NFκB-dependent luciferase activity was measured according to the manufacturer`s protocol for the Nano-Glo Luciferase Assay System (Promega, Mannheim, Germany; #N1110). NFκB-dependent luminescence was determined as relative light units (RLU) using the microplate reader Spark® (Tecan, Männedorf, Switzerland).

MDA-MB-468-UnaG [5] = assay: 2D cell viability in MDA-MB-468-UnaG under normoxia or CoCl2-simulated hypoxia
MDA-MB-468-UnaG [6] = assay: Cell cycle studies (PI-DNA flow cytometry) in MDA-MB-468-UnaG; assay type: cell-based; details: normoxia
Procedure: To investigate cell cycle progression in the presence of compound (1s) or paclitaxel (Santa Cruz Biotechnology; #sc-201439), we quantified the DNA content in the cell. On day 1, the cells were seeded in 1 mL into a 24 well plate (Greiner; #662160). On day 2, MDA-MB-468-UnaG were pre-treated either without (normoxia) or with 100 µM CoCl2 (hypoxia) (Sigma-Aldrich; #C8661) for 24 h before compounds were applied. On day 2 for MDA-MB-231 or on day 3 for MDA-MB-468-UnaG, paclitaxel was applied at the concentrations 15 nM, 37 nM, and 100 nM, and compound (1s) was applied at concentrations ranging from 2 nM to 1000 nM. Post-treatment cells were washed in 1× PBS (Thermo Fisher Scientific; #14190); fixed in 70% (v/v) ethanol overnight at 4 °C; washed again in 1× PBS; and, finally, DNA was stained for 15 min at 37 °C in the presence of 10 µg/mL propium iodide (PI; Sigma-Aldrich; #4864) and 100 µg/mL RNase A (Thermo Fisher Scientific; #EN0531) dissolved in 0.1% triton™ X-100 (Sigma-Aldrich; #X100), dissolved in PBS. The fluorescence signal resulting from PI-DNA complex formation was recorded using the flow cytometer CytoFlex (Beckmann Coulter, Krefeld, Germany). The cell cycle phase population was determined based on the DNA content in a set of chromosomes (n) in a cell using the integrated software CytExpert (Beckmann Coulter): sub-G0/G1 (<2n), G0/G1 (2n), S (>2n, <4n), G2/M (4n) or hyperploid cells (>4n) (see Figure S10).

Q: Which results are given for `CC(=O)O[C@H]1C(=O)[C@@]2(C)[C@H]([C@H](OC(=O)c3ccccc3)[C@]3(O)C[C@H](OC(=O)[C@H](O)[C@@H](NC(=O)c4ccccc4)c4ccccc4)C(C)=C1C3(C)C)[C@]1(OC(C)=O)CO[C@@H]1C[C@@H]2O` [Paclitaxel, paclitaxel, reference compound]?
A: IC50 (MDA-MB-231; MDA-MB-231 2D monolayer, 24 h post-treatment, mean ± SD, read-out: Reduction of Cell Viability 24 h IC50): 37.4 ± 8.6 nM; IC50 (MDA-MB-231; MDA-MB-231, 24 h, one individual experiment (Figure S3a), read-out: IC50 of representative dose-response, 2D cell viability): 36.9 nM; IC50 (NFκB [1]): > 1000 nM; IC50 ([2]; 3D co-culture spheroids, 72 h treatment, mean ± SD (n = 3), read-out: Reduction of Cell Viability 72 h IC50): 43 ± 14.3 nM; IC50 ([2]; co-culture spheroids, 72 h, one individual experiment (Figure S3b), read-out: IC50 of representative dose-response, 3D cell viability): 42.8 nM; reduction of spheroid growth compared to untreated spheroids [3]: 25%; IC50 (NFκB [4]): > 1000 nM; IC50 (MDA-MB-468-UnaG [5]; 24 h, read-out: cell viability IC50, hypoxia): > 1000 nM; decrease of cytotoxic effects by hypoxia (factor) (MDA-MB-468-UnaG [5]; hypoxia vs normoxia, MDA-MB-468-UnaG): ≥ 100; IC50 (MDA-MB-468-UnaG [5]; read-out: cell viability IC50, normoxia): 7.7 nM; sub-G0/G1 population (MDA-MB-468-UnaG [6]; 48 h): increase in the sub-G0/G1 population; cell cycle phase population (MDA-MB-468-UnaG [6]; (1s) 20 nM 72 h, paclitaxel within 24 h): significantly induces a G2/M arrest
